Results from paper PMC7509555, “An In Vitro Study for Evaluating Permeability and Metabolism of Kurarinone” (Evidence-based Complementary and Alternative Medicine : eCAM, 2020).
Where two headings read alike, the source gives them in different places.

Columns and labels:
Assay type in all cases: in vitro ADME
[1] = tested on: minipig liver microsomes (PLMs); test: Enzyme kinetics of P1 formation from kurarinone in PLMs
Procedure: Samples were prepared in a total volume of 200 μL, containing 0.3 mg/mL protein in human liver microsomes or 15 nM protein in recombinant human supersomes, probe substrates or 50 μM kurarinone, 10 mM MgCl2, 10 mM glucose-6-phosphate, and 1 unit/mL of glucose-6-phosphate dehydrogenase. The reactions were activated by adding NADPH following preincubation at 37°C for 5 min. The reactions were maintained at 37°C for 1 h and terminated by adding 200 μL ice-cold acetonitrile. The supernatant (10 μL) collected from the samples that were centrifuged (20,000 g, 20 min, 4°C) was injected into the HPLC system for analysis. Control incubations devoid of NADPH or kurarinone were performed parallelly to ensure that the produced metabolites were NADPH- or kurarinone-dependent.
Various concentrations of kurarinone (1–200 μM) were incubated with RLMs, MLMs, PLMs, RAMs, CYP1A2, and CYP2D6 to estimate kinetic parameters. The rest of the other conditions remained the same as described in Section 2.3. […] The apparent Km and Vmax values were calculated from nonlinear regression analysis of experimental data according to the Michaelis–Menten equation, and the results were represented graphically by Eadie–Hofstee plots. All incubations were carried out as triplicate independent experiments, and kinetic constants were recorded as mean ± SD.

[2] = Prediction of in vivo hepatic clearance in rat from RLM kinetics
Text: The following equations were utilized to predict the in vivo hepatic clearance of kurarinone in humans and rats.(1) CLint in vitro=Vmax/Km, (2) […], (3) CLH=QH·fu·CLint in/QH+fu·CLint in vivo, where the SF (scaling factor) represents the milligrams of microsomal protein per gram of the liver multiplied by the grams of liver weight; CLint is the intrinsic metabolic clearance; CLH is hepatic clearance; fu is the free fraction in the blood (no data were available for kurarinone; thus, fu was arbitrarily proposed to be 1); and QH is the hepatic blood flow. The CLH of kurarinone was calculated using equations (1)–(3).

PAMPA permeability study = conditions: for Papp at 5 h: PAMPA, room temperature, read-out: PAMPA effective permeability Pe
Procedure: The PAMPA method was used to measure the membrane permeability values, as described by Singh et al. in an earlier study. Drug samples were dissolved in DMSO and then diluted to 10 mM concentrations as a stock solution. 300 μL diluted drugs solution was filled in the PAMPA plate as the “donor” wells, and the 96-well filter plate with a synthetic phospholipid membrane was then placed on the donor wells. The “acceptor” wells were filled with 200 μl of buffer solution, and the PAMPA instruments were incubated at room temperature for 5 h. Kurarinone permeability was assessed in quadruplicate at pH 4.0 and 7.4. […] At the end of the incubation, kurarinone and the marker compounds in the donor and acceptor wells were determined by HPLC, and permeability was calculated.

Vmax of P1 formation [1]: 8.46 ± 0.74 nmol·min^−1·mg^−1 protein
Km ([1]; kurarinone 1–200 μM): 49.9 ± 7.91 µM
percentage of CLH versus hepatic blood flow (QH) ([2]; rat): 83.35%
predicted hepatic clearance CLH ([2]; rats, from RLM kinetic parameters of P1, fu assumed 1): 46.01 mL/min/kg body weight
Papp at 5 h (PAMPA permeability study; pH = 4): 3.87 ± 1.39 ×10⁻⁶ cm/s
Papp at 5 h (PAMPA permeability study; pH = 7): 2.14 ± 0.82 ×10⁻⁶ cm/s
PAMPA permeability class (PAMPA permeability study; pH 4.0 and 7.4): moderate permeability
SMILES: C=C(C)[C@H](CC=C(C)C)Cc1c(O)cc(OC)c2c1O[C@H](c1ccc(O)cc1O)CC2=O [Kurarinone]
